According to the NIST ThermoML archive (doi:10.1016/j.jct.2015.04.028):

Settings: Gas, Vibrating wire viscometry

N#N [nitrogen]
Settings	viscosity [mPa·s]
296.26 K, 99.9 kPa	0.01766
296.26 K, 312.6 kPa	0.01773
297.05 K, 500.9 kPa	0.01783
297.05 K, 700.9 kPa	0.01789
322.56 K, 109.8 kPa	0.01884
322.56 K, 307.3 kPa	0.01892
322.56 K, 500.7 kPa	0.01899
322.56 K, 701.2 kPa	0.01904
373.12 K, 111.2 kPa	0.02104
373.12 K, 300.6 kPa	0.02109
373.12 K, 503.2 kPa	0.02119
373.12 K, 694.5 kPa	0.02121
472.1 K, 110.2 kPa	0.02498
472.1 K, 309.7 kPa	0.025
472.1 K, 505.8 kPa	0.02509
472.1 K, 703.4 kPa	0.02513
572.98 K, 111.7 kPa	0.02864
572.98 K, 316.1 kPa	0.02867
572.98 K, 502 kPa	0.02871
572.98 K, 703.4 kPa	0.02868

[He] [helium]
Settings	viscosity [mPa·s]
296.26 K, 100.3 kPa	0.01964
296.26 K, 332.1 kPa	0.01983
296.26 K, 500.3 kPa	0.01979
296.26 K, 716 kPa	0.01982
322.56 K, 110.1 kPa	0.02084
322.56 K, 306.5 kPa	0.02096
322.56 K, 521.2 kPa	0.02101
322.56 K, 723 kPa	0.021
373.12 K, 111.6 kPa	0.02307
373.12 K, 307.1 kPa	0.02314
373.12 K, 504.2 kPa	0.02318
373.12 K, 698.5 kPa	0.02322
472.08 K, 111.5 kPa	0.02712
472.08 K, 313.7 kPa	0.02727
472.08 K, 504.9 kPa	0.02725
472.08 K, 717.7 kPa	0.02732
572.96 K, 111.1 kPa	0.03107
572.96 K, 309.7 kPa	0.03119
572.96 K, 514.3 kPa	0.03119
572.96 K, 721.7 kPa	0.03123

[HH] [hydrogen]
Settings	viscosity [mPa·s]
296.26 K, 102.8 kPa	0.0089
296.26 K, 305.3 kPa	0.00897
296.26 K, 501 kPa	0.009
296.26 K, 700.6 kPa	0.00902
322.56 K, 111 kPa	0.00941
322.56 K, 302.4 kPa	0.00946
322.56 K, 502 kPa	0.00949
322.56 K, 698 kPa	0.00951
373.12 K, 111.6 kPa	0.01041
373.12 K, 301.2 kPa	0.01047
373.12 K, 503.1 kPa	0.01048
373.12 K, 701.4 kPa	0.0105
472.13 K, 111.4 kPa	0.01209
472.13 K, 298.9 kPa	0.01214
472.13 K, 500.1 kPa	0.01215
472.13 K, 701.1 kPa	0.01216
573.48 K, 98.9 kPa	0.01416
573.48 K, 298.2 kPa	0.0142
573.48 K, 503 kPa	0.01427
573.48 K, 701.6 kPa	0.01425
